Measured values taken from patent US20240174622A1, “COMPOUND AND RADIOACTIVE LABELING COMPOUND” (NIHON MEDI-PHYSICS CO., LTD., priority 2021, published 2024).

Key:
[1] = test system: LNCaP tumor-transplanted mouse; experiment: Internal radioactivity distribution using LNCaP tumor-transplanted mouse; format: in vivo
Procedure: (§1) The animal test was performed in compliance with the guidelines of Kyoto University Animal Experiment Committee. Male CB17/IcrJcl-Prkdc^scid mice were purchased from CLEA Japan, Inc. The animals were kept under 12 h/12 h, day/night cycle conditions and fed ad libitum with food and water. LNCaP cells (1.0×10^7 cells/mouse) or PC-3 cells (1.0×10^7 cells/mouse) were suspended in a mixture of PBS and Matrigel manufactured by Corning Life Sciences (1:1, 150 μL) and the suspension was subcutaneously transplanted to the right shoulder of mice under isoflurane anesthesia. Thereafter, the mice were kept for 40 to 60 days.
LNCaP or PC-3 tumor-implanted mice were administered saline solutions (185 kBq, 100 μL) of [^111In]In-PSMA-DA1 or [^111In]In-PSMA-DB from the tail vein (n=3 each). Mice were euthanized 1, 4, 24, 48, 96, and 192 hours after administration. Thereafter, blood and each organ were recovered, and the mass and radioactivity of the organs were measured.
The percentage (% ID) of the radioactivity amount to the administered radioactivity amount (injected dose) is shown as the value (% ID/g) divided by the blood mass or the organ mass (g).
LNCaP tumor-implanted mice prepared by the same method as in Example 1-1 were administered a saline solution (241 kBq/100 μL) of [^111In]In-PtDA from the tail vein (n=3). Mice were euthanized 1, 24, and 48 hours after administration. Thereafter, blood and each organ were recovered, and the mass and radioactivity of the organs were measured.
LNCaP tumor-implanted mice prepared by the same method as in Example 1-1 were administered a saline solution (259 kBq/100 μL each) of each of the radiolabeled compounds in Examples 3-1 to 3-3 or Comparative Examples 2-1 to 2-2 from the tail vein (n=2 to 3). Mice were euthanized 1, 4, 24, 48, 96, and 192 hours after administration. Thereafter, blood and each organ were recovered, and the mass and radioactivity of the organs were measured.
as §1, with “LNCaP cells (4.3×10^6 cells/mouse) or” for “LNCaP cells (1.0×10^7 cells/mouse) or”, “PC-3 cells (3.3×10^6 cells/mouse) were” for “PC-3 cells (1.0×10^7 cells/mouse) were”, “shoulder of CB17/IcrJcl-Prkdc^scid mice under” for “shoulder of mice under”
Mice were euthanized 1, 4, 24, 48, 96, and 192 hours after administration. Thereafter, blood and each organ were recovered, and the mass and radioactivity of the organs were measured.
The results are shown in Table 12 (Mean value±standard deviation, n=3).

[2] = target: human serum albumin (HSA) (Homo sapiens, UniProt P02768); experiment: Evaluation of binding to albumin (HSA solution, PBS control); settings: left to stand in HSA solution (45 mg/mL)
Sequence of human serum albumin (HSA) (P02768 25-609): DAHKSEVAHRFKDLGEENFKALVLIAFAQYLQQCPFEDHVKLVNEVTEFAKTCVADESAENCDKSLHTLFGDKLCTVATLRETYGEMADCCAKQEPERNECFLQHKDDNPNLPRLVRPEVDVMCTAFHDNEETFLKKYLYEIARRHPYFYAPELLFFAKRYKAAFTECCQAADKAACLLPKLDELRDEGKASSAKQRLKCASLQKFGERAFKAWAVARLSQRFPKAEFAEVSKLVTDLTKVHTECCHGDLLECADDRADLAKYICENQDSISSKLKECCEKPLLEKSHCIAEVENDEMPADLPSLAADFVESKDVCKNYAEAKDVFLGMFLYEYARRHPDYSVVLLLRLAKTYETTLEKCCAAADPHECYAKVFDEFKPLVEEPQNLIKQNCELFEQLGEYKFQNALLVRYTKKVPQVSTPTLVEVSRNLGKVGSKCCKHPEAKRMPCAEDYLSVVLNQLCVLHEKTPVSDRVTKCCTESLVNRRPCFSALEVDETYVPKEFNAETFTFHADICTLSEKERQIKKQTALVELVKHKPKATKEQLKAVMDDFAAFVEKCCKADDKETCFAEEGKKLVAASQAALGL
Procedure: Thereafter, the reaction liquids were added to a spin column (Sephadex G-100; manufactured by Cytiva), and centrifuged at 1500×g at 4° C. for 2 minutes. After separation, the radioactivity for each of the column and the eluate was measured with a gamma counter.
When a compound to be evaluated binds to albumin to form a composite, the compound passes through the column because of the increased molecular size.
As in Examples described above, PBS and human albumin were used to evaluate binding to albumin.
Thereafter, the reaction liquid was added to a spin column (Sephadex G-50; manufactured by Cytiva), and centrifuged at 1500×g at 4° C. for 2 minutes. After separation, the radioactivity of the column and the eluate was measured with a gamma counter.

O=C([O-])CN(CCN(CCc1ccc(NC(=O)[C@H](CCCCNC(=O)CCC(=O)NCCCC[C@H](NC(=O)N[C@@H](CCC(=O)O)C(=O)O)C(=O)O)NC(=O)CCCc2ccc(I)cc2)cc1)CCN(CC(=O)[O-])Cc1cccc(C(=O)[O-])n1)Cc1cccc(C(=O)[O-])n1.[111In+3] [[^111In]In-Neunpa-2]
Blood ([1]; 1 h after administration): 13.6 ± 0.68 % ID/g | Brain ([1]; 1 h after administration): 0.18 ± 0.00 % ID/g | Heart ([1]; 1 h after administration): 3.74 ± 0.04 % ID/g | Intestine ([1]; 1 h after administration): 1.22 ± 0.30 % ID/g | Kidney ([1]; 1 h after administration): 90.1 ± 5.81 % ID/g | LNCaP Tumor ([1]; 1 h after administration): 7.44 ± 0.18 % ID/g | Liver ([1]; 1 h after administration): 2.23 ± 0.34 % ID/g | Lung ([1]; 1 h after administration): 8.99 ± 1.68 % ID/g | Muscle ([1]; 1 h after administration): 1.09 ± 0.25 % ID/g | Pancreas ([1]; 1 h after administration): 1.61 ± 0.42 % ID/g | Spleen ([1]; 1 h after administration): 16.9 ± 2.52 % ID/g | Stomach (% ID) ([1]; 1 h after administration): 0.23 ± 0.06 % ID | Blood ([1]; 4 h after administration): 5.73 ± 0.26 % ID/g | Brain ([1]; 4 h after administration): 0.12 ± 0.01 % ID/g | Heart ([1]; 4 h after administration): 1.78 ± 0.15 % ID/g | Intestine ([1]; 4 h after administration): 1.05 ± 0.29 % ID/g | Kidney ([1]; 4 h after administration): 126 ± 17.6 % ID/g | LNCaP Tumor ([1]; 4 h after administration): 8.57 ± 0.61 % ID/g | Liver ([1]; 4 h after administration): 1.29 ± 0.02 % ID/g | Lung ([1]; 4 h after administration): 4.14 ± 0.61 % ID/g | Muscle ([1]; 4 h after administration): 0.61 ± 0.11 % ID/g | Pancreas ([1]; 4 h after administration): 0.82 ± 0.05 % ID/g | Spleen ([1]; 4 h after administration): 8.16 ± 3.89 % ID/g | Stomach (% ID) ([1]; 4 h after administration): 0.29 ± 0.18 % ID | Blood ([1]; 24 h after administration): 2.48 ± 0.07 % ID/g | Brain ([1]; 24 h after administration): 0.08 ± 0.01 % ID/g | Heart ([1]; 24 h after administration): 0.79 ± 0.08 % ID/g | Intestine ([1]; 24 h after administration): 0.68 ± 0.11 % ID/g | Kidney ([1]; 24 h after administration): 101 ± 18.7 % ID/g | LNCaP Tumor ([1]; 24 h after administration): 8.61 ± 1.06 % ID/g | Liver ([1]; 24 h after administration): 1.00 ± 0.15 % ID/g | Lung ([1]; 24 h after administration): 2.26 ± 0.29 % ID/g | Muscle ([1]; 24 h after administration): 0.27 ± 0.11 % ID/g | Pancreas ([1]; 24 h after administration): 0.65 ± 0.05 % ID/g | Spleen ([1]; 24 h after administration): 2.67 ± 0.59 % ID/g | Stomach (% ID) ([1]; 24 h after administration): 0.13 ± 0.06 % ID | Blood ([1]; 48 h after administration): 0.20 ± 0.02 % ID/g | Brain ([1]; 48 h after administration): 0.03 ± 0.00 % ID/g | Heart ([1]; 48 h after administration): 0.14 ± 0.03 % ID/g | Intestine ([1]; 48 h after administration): 0.23 ± 0.05 % ID/g | Kidney ([1]; 48 h after administration): 11.7 ± 3.83 % ID/g | LNCaP Tumor ([1]; 48 h after administration): 4.92 ± 0.70 % ID/g | Liver ([1]; 48 h after administration): 0.58 ± 0.23 % ID/g | Lung ([1]; 48 h after administration): 0.40 ± 0.10 % ID/g | Muscle ([1]; 48 h after administration): 0.05 ± 0.04 % ID/g | Pancreas ([1]; 48 h after administration): 0.25 ± 0.09 % ID/g | Spleen ([1]; 48 h after administration): 0.83 ± 0.20 % ID/g | Stomach (% ID) ([1]; 48 h after administration): 0.06 ± 0.03 % ID | Blood ([1]; 96 h after administration): 0.13 ± 0.12 % ID/g | Brain ([1]; 96 h after administration): 0.03 ± 0.02 % ID/g | Heart ([1]; 96 h after administration): 0.14 ± 0.11 % ID/g | Intestine ([1]; 96 h after administration): 0.17 ± 0.10 % ID/g | Kidney ([1]; 96 h after administration): 9.71 ± 10.8 % ID/g | LNCaP Tumor ([1]; 96 h after administration): 3.35 ± 0.90 % ID/g | Liver ([1]; 96 h after administration): 1.30 ± 1.30 % ID/g | Lung ([1]; 96 h after administration): 0.36 ± 0.24 % ID/g | Muscle ([1]; 96 h after administration): 0.03 ± 0.02 % ID/g | Pancreas ([1]; 96 h after administration): 0.18 ± 0.12 % ID/g | Spleen ([1]; 96 h after administration): 0.47 ± 0.23 % ID/g | Stomach (% ID) ([1]; 96 h after administration): 0.03 ± 0.01 % ID | Blood ([1]; 192 h after administration): 0.02 ± 0.02 % ID/g | Brain ([1]; 192 h after administration): 0.02 ± 0.00 % ID/g | Heart ([1]; 192 h after administration): 0.22 ± 0.10 % ID/g | Intestine ([1]; 192 h after administration): 0.10 ± 0.05 % ID/g | Kidney ([1]; 192 h after administration): 1.83 ± 0.67 % ID/g | LNCaP Tumor ([1]; 192 h after administration): 5.16 ± 0.23 % ID/g | Liver ([1]; 192 h after administration): 0.64 ± 0.24 % ID/g | Lung ([1]; 192 h after administration): 0.29 ± 0.07 % ID/g | Muscle ([1]; 192 h after administration): 0.08 ± 0.00 % ID/g | Pancreas ([1]; 192 h after administration): 0.29 ± 0.11 % ID/g | Spleen ([1]; 192 h after administration): 0.88 ± 0.34 % ID/g | Stomach (% ID) ([1]; 192 h after administration): 0.02 ± 0.01 % ID | radioactivity in the eluate (in words) [2]: significantly higher
